Measurements from paper PMC8779831, “Enzyme-Responsive Amphiphilic Peptide Nanoparticles for Biocompatible and Efficient Drug Delivery” (Pharmaceutics, 2022).

How the values were obtained:
[1] = tested on: SW480 cells in zebrafish larvae; assay: In vivo anticancer capability in zebrafish cancer model; conditions: micro-injection, observed 2 days after injection
Protocol: To examine the anticancer activity of the Dox-loaded RH-(GLFG)3 nanoparticles in vivo, we generated zebrafish cancer models using the SW480 cell line. Briefly, zebrafish eggs were incubated in a fish incubator for 2 days and dechorionated. The SW480 cells were stained using cell fluorescence tracker (cell tracker green CMFDA) for 30 min in a cell culture incubator. The labeled cells were then harvested using trypsin-EDTA and washed twice with PBS containing 10% FBS. The labeled cells were then injected into zebrafish larvae by micro-injection. The larvae were split in 96-well microplates containing TAP-water. After 2 days of incubation, Free Dox and Dox-loaded RH-(GLFG)3 nanoparticles (LL-Dox and DD-Dox) were injected into zebrafish larvae by micro-injection. After 2 days of incubation, the larvae were anesthetized using 0.04% tricaine and observed under a fluorescence microscope (Leica DMi8, Wetzlar, Germany).

HeLa cells [2] = assay: Cellular uptake of Dox-loaded nanoparticles, confocal microscopy; format: cell-based; conditions: 1 μM, 16 h (results text; method: 2 μM, 6 h)
Protocol: The cellular uptake of Dox-loaded RH-(GLFG)3 nanoparticles in HeLa cells was analyzed using confocal microscopy. HeLa cells were seeded to 1.0 × 10^4 cells/well in an 8-well confocal plate and incubated for 24 h. After incubation, the cells were treated using Free Dox, DD-Dox, and LL-Dox at a final concentration of 2 μM and incubated for 6 h. The nuclei of the cells were stained with 20 μM Hoechst 33324 for 15 min. The prepared cells were observed using confocal microscopy. To understand cellular uptake in tissue, we examined 3D spheroids of HeLa cells. For the formulation of the 3D spheroids, 1.0 × 10^4 cells were seeded in a round shaped 96-well plate coated with 1% agarose and incubated for 3 days. After incubation, the cells formed a globular shaped 3D tissue. The prepared 3D spheroids were treated using Free Dox, DD-Dox, and LL-Dox at a final concentration of 1 μM. The 3D spheroid medium was changed every 2 days for the tissue growth. After 7 days, the 3D spheroids were observed using confocal microscopy.

[3] = FE-SEM morphology of peptide nanoparticles; format: physicochemical; conditions: dried samples, osmium coated, 5–10 kV
Protocol: (§1) The size of the peptide nanoparticles at concentrations of 0.5 mg/mL was analyzed by dynamic laser light scattering (DLS) with ELS-Z2 (Photal, Otsuka Electronics Co., Ltd., Otsuka, Japan) and a Nano-ZS (Malvern Instruments Ltd., London, UK). The ξ-potential of the peptide nanoparticles was measured using a Nano-ZS. To confirm their stability, the LL and DD nanoparticles were monitored using a DLS instrument every 5 days for 30 days. The morphology of the LL peptide nanoparticles was measured using a field emission scanning electron microscope (FE-SEM). Thereafter, the dried samples of peptide nanoparticles were coated with osmium and analyzed by FE-SEM (Hitachi, Tokyo, Japan) under a 5–10 kV acceleration voltage. The self-assembled structure of the peptide nanoparticles was analyzed using CD spectroscopy (J-1000, Jasco, Hachioji, Japan). The LL and DD peptide nanoparticle solutions were measured in a quartz cuvette at wavelengths of 190 to 260 nm.

HeLa cells [4] = assay: Anticancer effect, MTT assay in HeLa cells; format: cell-based; conditions: HeLa, 24, 48 and 72 h, peptide without Dox
Protocol: (§2) The anticancer activity of Dox-loaded peptide nanoparticles in HeLa and SW480 cells was determined with an MTT assay. Cells were seeded to 1.0 × 10^4 cells/well in a 96-well microplate and incubated for 24 h. After incubation, the cells were treated using Free Dox and Dox-loaded RH-(GLFG)3 nanoparticles to a final concentration of 0.25–2 μM and incubated for 24–72 h. After incubation, the prepared samples were analyzed following the method described above. To understand the anticancer effect in tissue, 3D spheroids of HeLa cells were prepared as described above. The prepared 3D spheroids were treated with 1 μM Free Dox, DD-Dox, and LL-Dox and incubated for 1–7 days. The morphology of the 3D spheroids was observed using an objective microscope every day. After 7 days of incubation, the viability of the spheroids was analyzed using an MTT assay. The spheroids were added to the MTT solution (2 mg/mL in DPBS) and incubated for 4 h. The supernatant was removed, and 150 μL of DMSO was added to each sample. The prepared samples were measured using a micro reader (Molecular Devices, San Jose, CA, USA) at an absorbance of 570 nm.

[5] = Dynamic light scattering (DLS) size of peptide nanoparticles; format: physicochemical; conditions: empty peptide nanoparticles 0.5 mg/mL, Tables S1 and S2, mean ± SEM (n=3)
Protocol: as §1
(§3) Doxorubicin (Dox) was encapsulated in the RH-(GFLG)3 peptide nanoparticles to evaluate their potential as drug delivery carriers. […] The prepared Dox-loaded RH-(GFLG)3 nanoparticles (LL-Dox, LD-Dox, DL-Dox, and DD-Dox) were stored at 4 °C, and their size diameter and ξ-potential were measured using DLS and zeta instruments of Nano ZS90 (Malvern, Worcestershire, UK) to confirm the formulation of the nanostructure.

[6] = Storage stability of nanoparticles monitored by DLS; format: physicochemical; conditions: DLS every 5 days for 30 days at 4 °C; mean ± SEM (n = 3)
Protocol: as §1

cathepsin B = biological target: T1, cathepsin B (Homo sapiens, UniProt P07858); assay: Enzyme-responsiveness test with cathepsin B, MALDI-TOF MS; format: in vitro ADME; conditions: 0.02 μM cathepsin B in activation buffer, 37 °C, 6 h; versus control without enzyme
T1 construct: purchased Sigma-Aldrich (Seoul, Korea)
Protocol: The enzyme-responsive ability of RH-(GFLG)3 was analyzed using matrix assisted laser mass spectroscopy (MALDI-TOF, Voyager TOF Mass Spectrometer, Applied Biosystems Inc., Carlsbad, CA, USA). The LL, LD, DL, and DD peptides were treated with 0.02 μM of the enzyme cathepsin B in an activation buffer at 37 °C for 6 h. To compare enzyme-responsive ability, control groups without enzyme were treated identically in an activation buffer at 37 °C for 6 h. The prepared peptides were measured using MALDI-TOF (Voyager TOF Mass Spectrometer) in a α-cyano-4-hydroxycinnamic acid (CHCA) matrix.

[7] = ξ-potential of peptide nanoparticles (Nano-ZS); format: physicochemical; conditions: empty peptide nanoparticles; Tables S1 and S2; mean ± SEM (n=3); in mV (unit assumed)
Protocol: as §1, §3

HeLa cells [8] = assay: LDH assay (membrane damage); format: cell-based; conditions: 24 h, 0.025–0.2 μg/μL, relative to 20% Tween-20 control
Protocol: (§4) The cytotoxicity of the RH-(GFLG)3 nanoparticles was examined using WST-1, LDH, and hemolysis assays. For the WST-1 assay, the HeLa cells were seeded to 1.0 × 10^4 cells/well in a 96-well microplate and incubated for 24 h. PEI 25kD and LL, LD, DL, and DD were prepared at various concentrations (0.025 to 0.2 μg/μL). PEI 25kD, a cationic polymer, was introduced as a positive control. After 24 h of incubation, 10 µL WST-1 was added to each well and incubated for 2 h. WST-1 formazan was measured using a VERASmax microplate reader (Molecular Devices, LLC, Sunnyvale, CA, USA) at an absorbance of 450 nm. For the LDH assay, 20% Tween-20 treated cells were examined as maximum LDH activated control to calculate the LDH activity (%) of samples. After 24 h incubation, 10 μL of the supernatant of each sample was collected and added to a working reagent containing 0.2 mM NADH and 2.5 mM sodium pyruvate in a 96-well microplate and incubated for 45 min at 37 °C. Finally, the LDH activity was quantified by measuring the absorbance at 490 nm using a microplate reader.

HeLa cells [9] = assay: Cytotoxicity of peptide nanoparticles, WST-1 / MTT assay; format: cell-based; conditions: 24 h, highest concentration of 0.2 μg/μL, mean ± SEM (n = 3)
Protocol: as §4

[10] = Critical aggregation concentration with Nile Red probe; format: physicochemical
Protocol: The critical aggregation concentration (CAC) value of the RH-(GFLG)3 nanoparticles was analyzed using the hydrophobic probe Nile Red. Briefly, the peptide nanoparticles were prepared at various concentrations ranging from 0.001 to 0.3 mg/mL to make a final volume of 1 mL. Then, the prepared nanoparticle solutions were mixed with 5 μL of 40 μM Nile Red solution in ethanol to a final concentration of 0.2 μM. The samples were dried to remove the ethanol using nitrogen gas stream and incubated for 1 h at room temperature (25 °C). After incubation, prepared samples were measured using fluorescence spectroscopy (PerkinElmer, Waltham, MA, USA) at an excitation wavelength of 515 nm and emission wavelengths of 550–750 nm. The CAC of the peptide nanoparticles was analyzed by fluorescence intensity at 650 nm.

SW480 cells = assay: Anticancer effect, MTT assay in SW480 cells; format: cell-based; conditions: SW480, 24, 48 and 72 h, peptide without Dox
Protocol: as §2

HeLa cells [11] = assay: Cellular uptake of Nile Red-tagged nanoparticles (confocal microscopy, FACS); format: cell-based; conditions: Nile Red-tagged nanoparticles 0.2 mg/mL, 6 h confocal microscopy (16 h FACS)
Protocol: The cellular uptake ability of the peptide nanoparticle was analyzed using confocal microscopy (Zeiss International, Oberkochen, Germany) and fluorescence-activated cell sorting (FACS) (BD Biosciences, San Jose, CA). For confocal microscopy assays, 1.0 × 10^4 cells/well were seeded in an 8-well confocal plate and incubated for 24 h. Nile Red-tagged LL, DL, DL, and DD peptide nanoparticles were treated to a final concentration of 0.2 mg/mL, and the cells were incubated for 6 h. After incubation, the cell nuclei were stained with 20 μM Hoechst 33324 for 15 min. The prepared cells were observed using confocal microscopy. In the FACS assay, 1.0 × 10^6 cells/well were seeded in 6-well microplate and incubated for 24 h. After incubation, the Nile Red-tagged peptide nanoparticles were treated to a final concentration of 0.2 mg/mL, and cells were incubated for 16 h. After incubation, the cells were washed twice using DPBS and harvested using trypsin-EDTA. The cells were collected by centrifugation (1500 rpm, 3 min) and resuspended in 500 μL of DPBS. The prepared samples were transferred to a FACS tube and analyzed using FACS.

human RBCs = assay: Hemolysis assay; format: cell-based; conditions: 0.1 and 0.2 μg/μL, 2 h at 37 °C, absorbance 450 nm, Triton X-100 0.2% as maximum
Protocol: The hemolysis of LL, LD, DL, and DD nanoparticles was investigated using human blood cells. PEI 25kD was introduced as a positive control. Briefly, fresh human blood was obtained from healthy volunteers. Coagulation of human blood was prevented using ethylenediaminetetraacetic acid (EDTA). The human blood was centrifuged at 5000 rpm for 5 min to separate the red blood cells (RBCs) from the serum. The isolated RBCs were washed twice using PBS and diluted to 2.0 × 10^8 cells/mL in PBS. To evaluate the hemolytic activity, Triton X-100 0.2% treated samples were used as the maximum hemolytic activity control. A 0.25 mL volume of the prepared RBCs was mixed with 0.25 mL of each sample (final concentration of 0.1 μg/μL and 0.2 μg/μL, respectively). The mixed samples were incubated for 2 h at 37 °C. After incubation, the samples were centrifuged at 5000 rpm for 5 min, and […] of the supernatant of each sample was collected. The supernatant was diluted 10-fold using PBS to a final volume of 100 μL. The prepared supernatant solution was added to a 96-well microplate and measured at 450 nm using a VERSAmax microplate reader (Molecular Devices, San Jose, CA, USA).

Compound	anticancer effect on cell tracker labelled SW480 cells (fluorescence) [1]	cellular uptake ability of Dox (HeLa cells [2])	size of globular nanostructure in FE-SEM images [3]	cytotoxicity of peptide control groups (HeLa cells [4])	Hydrodynamic diameter [5] [nm]	Polydispersity index (PDI) [5]	nanoscale diameter during storage [6]	degradation by cathepsin B (peak at 1433 m/z in MALDI-TOF mass spectrum) (cathepsin B)	Ξ-Potential [7]	LDH release (HeLa cells [8])	cytotoxicity (cell viability) (HeLa cells [9])	critical aggregation concentration (CAC) ([10]; Nile Red 0.2 μM, peptide 0.001–0.3 mg/mL, 1 h at 25 °C, fluorescence ex 515 nm, intensity at 650 nm)	CAC (printed in Figure 2E) ([10]; Nile Red probe, fluorescence at 650 nm) [µg/µL]	cytotoxicity of peptide control groups (SW480 cells)	cellular uptake ability (HeLa cells [11])	hemolysis (human RBCs)
COc1cccc2c1C(=O)c1c(O)c3c(c(O)c1C2=O)C[C@@](O)(C(=O)CO)C[C@@H]3O[C@H]1C[C@H](N)[C@H](O)[C@H](C)O1 [Free Dox, doxorubicin]	low anticancer effect	low cellular uptake ability														
Arg-His-(Gly-Phe-Lue-Gly)3 [LL]			smaller than 100 nm	negligible cytotoxicity	118 ± 7.7	0.245 ± 0.010	less than 200 nm	no peak at 1433 m/z	30.1 ± 0.4	negligible LDH release	negligible cytotoxicity	around 0.02 mg/mL	0.02	negligible cytotoxicity	higher uptake	negligible hemolysis
